According to ChEMBL document CHEMBL1201862, “PubChem BioAssay data set” (2004):
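How tested: cells in 96-well plates exposed to compound for 48 hours at five concentrations. GI50 marks 50% less growth.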 Activity calls are given as the source filed them. Rule as the data show it: active = GI50 up to about 1.1 µM and inactive = higher.

What was measured:
Experiment in all cases: inhibition of tumour cell growth, NCI panel, 48 h
[1] = tested on: A498
[2] = tested on: A549
[3] = tested on: CAKI-1
[4] = tested on: CCRF-CEM
[5] = tested on: COLO 205
[6] = tested on: DLD-1
[7] = tested on: DMS-114
[8] = tested on: DMS-273
[9] = tested on: EKVX
[10] = tested on: HCC 2998
[11] = tested on: HCT-116
[12] = tested on: HCT-15
[13] = tested on: HL-60
[14] = tested on: HOP-18
[15] = tested on: HOP-62
[16] = tested on: HOP-92
[17] = tested on: HT-29
[18] = tested on: IGROV-1
[19] = tested on: K562
[20] = tested on: KM-20L2
[21] = tested on: KM12
[22] = tested on: LOX IMVI
[23] = tested on: M19-MEL
[24] = tested on: MCF7
[25] = tested on: MOLT-4
[26] = tested on: Malme-3M
[27] = tested on: NCI-H226
[28] = tested on: NCI-H23
[29] = tested on: NCI-H460
[30] = tested on: NCI-H522
[31] = tested on: NCI/ADR-RES
[32] = tested on: OVCAR-3
[33] = tested on: OVCAR-4
[34] = tested on: OVCAR-5
[35] = tested on: OVCAR-8
[36] = tested on: RPMI-8226
[37] = tested on: RXF 393
[38] = tested on: SF-268
[39] = tested on: SF-295
[40] = tested on: SF-539
[41] = tested on: SK-MEL-28
[42] = tested on: SK-MEL-2
[43] = tested on: SK-MEL-5
[44] = tested on: SK-OV-3
[45] = tested on: SN12C
[46] = tested on: SNB-19
[47] = tested on: SNB-75
[48] = tested on: SW-620
[49] = tested on: U-251
[50] = tested on: UACC-257
[51] = tested on: UACC-62
[52] = tested on: UO-31
[53] = tested on: 786-0
[54] = tested on: ACHN
[55] = tested on: LXFL 529
[56] = tested on: M14
[57] = tested on: SNB-78
[58] = tested on: SR
[59] = tested on: XF498

O=C(O)C(Cc1cccs1)NC(=O)C(F)(F)F (stereo not given)
GI50 [1]: > 100 µM (inactive)
GI50 [2]: > 100 µM (inactive)
GI50 [3]: > 100 µM (inactive)
GI50 [4]: > 100 µM (inactive)
GI50 [5]: > 100 µM (inactive)
GI50 [6]: > 100 µM (inactive)
GI50 [7]: > 100 µM (inactive)
GI50 [8]: > 100 µM (inactive)
GI50 [9]: > 100 µM (inactive)
GI50 [10]: > 100 µM (inactive)
GI50 [11]: > 100 µM (inactive)
GI50 [12]: > 100 µM
GI50 [13]: > 100 µM (inactive)
GI50 [14]: > 100 µM (inactive)
GI50 [15]: > 100 µM (inactive)
GI50 [16]: > 100 µM (inactive)
GI50 [17]: > 100 µM (inactive)
GI50 [18]: > 100 µM (inactive)
GI50 [19]: > 100 µM (inactive)
GI50 [20]: > 100 µM (inactive)
GI50 [21]: > 100 µM (inactive)
GI50 [22]: > 100 µM (inactive)
GI50 [23]: > 100 µM (inactive)
GI50 [24]: > 100 µM (inactive)
GI50 [25]: > 100 µM (inactive)
GI50 [26]: > 100 µM (inactive)
GI50 [27]: > 100 µM (inactive)
GI50 [28]: > 100 µM (inactive)
GI50 [29]: > 100 µM (inactive)
GI50 [30]: > 100 µM (inactive)
GI50 [31]: > 100 µM (inactive)
GI50 [32]: > 100 µM (inactive)
GI50 [33]: > 100 µM (inactive)
GI50 [34]: > 100 µM (inactive)
GI50 [35]: > 100 µM (inactive)
GI50 [36]: > 100 µM (inactive)
GI50 [37]: > 100 µM (inactive)
GI50 [38]: > 100 µM (inactive)
GI50 [39]: > 100 µM (inactive)
GI50 [40]: > 100 µM (inactive)
GI50 [41]: > 100 µM (inactive)
GI50 [42]: > 100 µM (inactive)
GI50 [43]: > 100 µM (inactive)
GI50 [44]: > 100 µM (inactive)
GI50 [45]: > 100 µM (inactive)
GI50 [46]: > 100 µM (inactive)
GI50 [47]: > 100 µM (inactive)
GI50 [48]: > 100 µM (inactive)
GI50 [49]: > 100 µM (inactive)
GI50 [50]: > 100 µM (inactive)
GI50 [51]: > 100 µM (inactive)
GI50 [52]: > 100 µM (inactive)

O=C1C(CN2CCCCC2)CCCC1CN1CCCCC1 (stereo not given)
GI50 [53]: 7.29 µM (inactive)
GI50 [1]: > 100 µM (inactive)
GI50 [2]: > 100 µM (inactive)
GI50 [54]: 19.6 µM (inactive)
GI50 [6]: 15.9 µM (inactive)
GI50 [8]: 29.6 µM (inactive)
GI50 [9]: 19.9 µM (inactive)
GI50 [10]: > 100 µM (inactive)
GI50 [11]: 14.5 µM (inactive)
GI50 [12]: 14.2 µM
GI50 [14]: 14.7 µM (inactive)
GI50 [15]: > 100 µM (inactive)
GI50 [17]: 18.8 µM (inactive)
GI50 [20]: 13.3 µM (inactive)
GI50 [21]: > 60.3 µM (inactive)
GI50 [22]: 25.5 µM (inactive)
GI50 [55]: 15.6 µM (inactive)
GI50 [56]: 32.3 µM (inactive)
GI50 [26]: 5.82 µM (inactive)
GI50 [27]: > 100 µM (inactive)
GI50 [28]: > 45.1 µM (inactive)
GI50 [32]: 17.1 µM (inactive)
GI50 [33]: > 10 µM (inactive)
GI50 [34]: > 59 µM (inactive)
GI50 [35]: 14.9 µM (inactive)
GI50 [39]: > 100 µM (inactive)
GI50 [40]: > 43.2 µM (inactive)
GI50 [41]: 13.7 µM (inactive)
GI50 [43]: > 31.6 µM (inactive)
GI50 [45]: 26.2 µM (inactive)
GI50 [46]: > 100 µM (inactive)
GI50 [57]: 22.8 µM (inactive)
GI50 [58]: 8.93 µM (inactive)
GI50 [48]: 9.89 µM (inactive)
GI50 [50]: 24.9 µM (inactive)
GI50 [51]: > 40.6 µM (inactive)
GI50 [52]: > 42.2 µM (inactive)
GI50 [59]: 18.4 µM (inactive)
